Experimental data published in patent US7476689B2, “Therapeutic compositions for intranasal administration which include KETOROLAC” (Recordati Ireland Limited, priority 1991, dated 2009).

Key:
patients = settings: cited from earlier work
[1] = nasal absorption: KTM plasma levels by HPLC after intranasal or intravenous administration; assay type: in vivo, White New Zealand rabbits; settings: rabbit
Method: Each rabbit received a active preparation in one nostril and its placebo in the other. Each animal received 2 mg/kg of KETOROLAC® tromethamine (KTM), twice a day for seven days and once on the eighth day. The control rabbits were treated, after seven days of nasal administration of physiologic solution, with 2 mg/kg of KTM by intravenous route once. After the last treatment plasma samples were collected at several times and KTM plasma levels were investigated by HPLC. After the last blood sample was drawn all the animals were killed by excision of femoral arteries, after having been completely anaesthetized. Nasal turbinates, larynx and pharynx were removed and subjected to histological examinations.

SMILES | patients with one or more undesirable side effects (patients; intramuscular route, 20 doses of 30 mg each over five days) | patients with gastrointestinal disorders (patients; oral administration) | incidence of side effects (patients; oral route for a few days) | concentration at 0.083 h ([1]; New Zealand White, plasma, intravenous 2 mg/kg once, 0.083 hours) | concentration at 0.25 h ([1]; New Zealand White, plasma, intravenous 2 mg/kg once, 0.25 hours) | concentration at 0.5 h ([1]; New Zealand White, plasma, intravenous 2 mg/kg once, 0.5 hours) | concentration at 1 h ([1]; New Zealand White, plasma, intravenous 2 mg/kg once, 1 hour) | concentration at 2 h ([1]; New Zealand White, plasma, intravenous 2 mg/kg once, 2 hours) | concentration at 3 h ([1]; New Zealand White, plasma, intravenous 2 mg/kg once, 3 hours) | concentration at 5 h ([1]; New Zealand White, plasma, intravenous 2 mg/kg once, 5 hours) | AUC(0-t) ([1]; New Zealand White, plasma, intravenous 2 mg/kg, mean of three animals, read-out: AUC0-5, average) | Plasma Concentration of KTM, Mean ([1]; intravenous 2 mg/kg once, sampling time Basal)
O=C(c1ccccc1)c1ccc2n1CCC2C(=O)O (stereo not drawn) [KETOROLAC®, 5-benzoyl-2,3-dihydro-1H-pyrrolizine-1-carboxylic acid] | about 10% | up to 50% | around 32% | – | – | – | – | – | – | – | – | –
O=C(c1ccccc1)c1ccc2n1CCC2C(=O)O (stereo not drawn) [KTM, KETOROLAC® tromethamine] | – | – | – | 14500 ng/mL | 7680 ng/mL | 3880 ng/mL | 1700 ng/mL | 403 ng/mL | 120 ng/mL | 20 ng/mL | 7360 ng·h/mL | 0 ng/mL
